Patent US20140323504A1, “Pyrazolo[4,3-c]Pyridine Derivatives As Kinase Inhibitors” (Cellzome Limited, priority 2011, published 2014)

Target: T1, TEC (Homo sapiens, UniProt P42680)
T1 construct: endogenous in cells; host or cells: 1:1 mix of Jurkat and Ramos cell lysates
T1 sequence (P42680 1-631): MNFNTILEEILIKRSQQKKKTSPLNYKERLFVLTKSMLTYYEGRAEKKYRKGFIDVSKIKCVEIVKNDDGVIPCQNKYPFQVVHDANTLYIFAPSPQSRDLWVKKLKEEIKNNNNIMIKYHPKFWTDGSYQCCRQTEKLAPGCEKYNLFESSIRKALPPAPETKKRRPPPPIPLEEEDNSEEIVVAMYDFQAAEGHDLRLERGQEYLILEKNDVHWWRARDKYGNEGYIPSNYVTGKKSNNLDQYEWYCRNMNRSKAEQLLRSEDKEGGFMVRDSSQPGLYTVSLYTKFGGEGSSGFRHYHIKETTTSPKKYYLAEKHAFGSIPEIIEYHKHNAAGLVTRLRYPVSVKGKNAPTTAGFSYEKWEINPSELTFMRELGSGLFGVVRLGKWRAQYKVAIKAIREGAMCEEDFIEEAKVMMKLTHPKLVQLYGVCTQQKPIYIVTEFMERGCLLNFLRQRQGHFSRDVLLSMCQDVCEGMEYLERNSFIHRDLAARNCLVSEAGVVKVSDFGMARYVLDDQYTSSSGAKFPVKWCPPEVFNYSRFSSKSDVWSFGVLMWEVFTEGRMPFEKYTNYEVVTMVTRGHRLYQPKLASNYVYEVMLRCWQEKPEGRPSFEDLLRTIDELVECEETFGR
Assay: Kinobeads assay with quantitative mass spectrometry, TEC
Type: binding
Conditions: Jurkat/Ramos lysate, read-out: TEC inhibition value (IC50)
Description: Selected compounds of the present invention as described in the previous examples were tested in a Kinobeads™ assay as described (WO-A 2006/134056; Bantscheff et al., 2007. Nature Bioteclmol. 25, 1035-1044).
Compounds were incubated with cell lysate aliquots (1:1 mix of Jurkat and Ramos cell lysates) for 45 minutes at 4° C. and allowed to bind to the proteins in the lysate sample. Then the Kinobeads™ affinity matrix was added to capture proteins that were not interacting with the previously added compound. After this two hour incubation step at 4° C. beads were separated from the lysate and bead bound proteins were eluted in SDS sample buffer and subsequently separated by SDS-Polyacrylamide gel electrophoresis. […] The TMT reagents are a set of multiplexed, amine-specific, stable isotope reagents that can label peptides in up to six different biological samples enabling simultaneous identification and quantitation of peptides. The combined samples were fractionated using reversed-phase chromatography at pH 11 and fractions were subsequently analyzed with a nano-flow liquid chromatography system coupled online to a tandem mass spectrometer (LC-MSMS) experiment followed by reporter ion quantification in the MSMS spectra (Ross et al., 2004. Mol. Cell. Proteomics 3(12):1154-1169; Dayon et al., 2008. Anal. Chem. 80(8):2921-2931; Thompson et al., 2003. Anal. Chem. 75(8):1895-1904). […]

| Compound | IC50 [nM] |
| --- | --- |
| C=CC(=O)Nc1cccc(Cn2ncc3cnc(Nc4cnn(C)c4)nc32)c1 [Example 1, N-(3-((6-((1-Methyl-1H-pyrazol-4-yl)amino)-1H-pyrazolo[3,4-d]pyrimidin-1-yl)methyl)phenyl)acrylamide] | 12 |
| C=CC(=O)Nc1cc(Cn2ncc3cnc(Nc4cnn(C)c4)nc32)ccc1F [Example 2, […]] | 34 |
